Test results taken from PMC10191619, “Bilirubin gates the TRPM2 channel as a direct agonist to exacerbate ischemic brain damage” (Neuron, 2023).

How the values were obtained:
Assay type in all cases: cell-based
[1] = target: T1, TRPM2-ΔN/ΔC (Homo sapiens, UniProt O94759); test: Whole-cell patch-clamp, truncation mutant; details: ADPR 500 μM
T1 construct: expressed in transfected cells; host or cells: HEK293T cells, transient transfection, GFP cDNA co-transfected as a separate marker
Procedure: (§1) Human embryonic kidney 293 (HEK293) cells with tetracycline-inducible expression of human TRPM2 channel (hTRPM2) were cultured in a mixed medium containing DMEM/ F-12 (Gibco, USA) and 10% fetal bovine serum (Gibco, USA) as well as blasticidin (50 μg/ml, Invivogen, USA) and zeocin (0.4 mg/ml, Invivogen, USA). The expression of hTRPM2 was induced by substituting blasticin and zeocin for tetracycline (1 μg/ml, Sigma, USA) 24-48 hours before use. TRPM2 channel mutants were transiently expressed in HEK293T cells by transfection with using Lipofectamine 3000. Briefly, HEK293T cells were transiently transfected with cDNAs encoding the mutant hTRPM2 channel. The cDNA for GFP was co-transfected as a marker for identification of the transfected cells for electrophysiological experiments 16-24 hours after transfection. […]
(§2) Coronal cortical slices were transferred into the recording chamber and continuously perfused at room temperature with ACSF oxygenated with 95% O2 and 5% CO2. […] For whole-cell or single channel recordings from transfected HEK-293T cells, the coverslips were placed in a culture dish (35 × 35 mm, Sorfa) containing HEPES based extracellular solution (ECS) and recorded by patch-clamp technique. […] Each coverslip was recorded only once with different drug exposures. […]

[2] = target: T2, hTRPM2 R302A/R358A (Homo sapiens, UniProt O94759, R302A/R358A); test: Whole-cell patch-clamp, N-terminal ADPR-binding site mutant; details: ADPR
T2 construct: expressed in transfected cells; host or cells: HEK293T cells, transient transfection (Lipofectamine 3000), GFP cDNA co-transfected as a separate marker
Procedure: as §1, §2

[3] = target: T3, hTRPM2 K928A/D1069A double mutant (Homo sapiens, UniProt O94759, D1069A/K928A); test: Whole-cell patch-clamp, bilirubin-binding cavity double mutant; details: intracellular ADPR 500 μM
T3 construct: expressed in transfected cells; host or cells: HEK293T cells, transient transfection, GFP cDNA co-transfected as a separate marker
Procedure: as §1, §2

T1 sequence (O94759 1-1449 isoform O94759-2): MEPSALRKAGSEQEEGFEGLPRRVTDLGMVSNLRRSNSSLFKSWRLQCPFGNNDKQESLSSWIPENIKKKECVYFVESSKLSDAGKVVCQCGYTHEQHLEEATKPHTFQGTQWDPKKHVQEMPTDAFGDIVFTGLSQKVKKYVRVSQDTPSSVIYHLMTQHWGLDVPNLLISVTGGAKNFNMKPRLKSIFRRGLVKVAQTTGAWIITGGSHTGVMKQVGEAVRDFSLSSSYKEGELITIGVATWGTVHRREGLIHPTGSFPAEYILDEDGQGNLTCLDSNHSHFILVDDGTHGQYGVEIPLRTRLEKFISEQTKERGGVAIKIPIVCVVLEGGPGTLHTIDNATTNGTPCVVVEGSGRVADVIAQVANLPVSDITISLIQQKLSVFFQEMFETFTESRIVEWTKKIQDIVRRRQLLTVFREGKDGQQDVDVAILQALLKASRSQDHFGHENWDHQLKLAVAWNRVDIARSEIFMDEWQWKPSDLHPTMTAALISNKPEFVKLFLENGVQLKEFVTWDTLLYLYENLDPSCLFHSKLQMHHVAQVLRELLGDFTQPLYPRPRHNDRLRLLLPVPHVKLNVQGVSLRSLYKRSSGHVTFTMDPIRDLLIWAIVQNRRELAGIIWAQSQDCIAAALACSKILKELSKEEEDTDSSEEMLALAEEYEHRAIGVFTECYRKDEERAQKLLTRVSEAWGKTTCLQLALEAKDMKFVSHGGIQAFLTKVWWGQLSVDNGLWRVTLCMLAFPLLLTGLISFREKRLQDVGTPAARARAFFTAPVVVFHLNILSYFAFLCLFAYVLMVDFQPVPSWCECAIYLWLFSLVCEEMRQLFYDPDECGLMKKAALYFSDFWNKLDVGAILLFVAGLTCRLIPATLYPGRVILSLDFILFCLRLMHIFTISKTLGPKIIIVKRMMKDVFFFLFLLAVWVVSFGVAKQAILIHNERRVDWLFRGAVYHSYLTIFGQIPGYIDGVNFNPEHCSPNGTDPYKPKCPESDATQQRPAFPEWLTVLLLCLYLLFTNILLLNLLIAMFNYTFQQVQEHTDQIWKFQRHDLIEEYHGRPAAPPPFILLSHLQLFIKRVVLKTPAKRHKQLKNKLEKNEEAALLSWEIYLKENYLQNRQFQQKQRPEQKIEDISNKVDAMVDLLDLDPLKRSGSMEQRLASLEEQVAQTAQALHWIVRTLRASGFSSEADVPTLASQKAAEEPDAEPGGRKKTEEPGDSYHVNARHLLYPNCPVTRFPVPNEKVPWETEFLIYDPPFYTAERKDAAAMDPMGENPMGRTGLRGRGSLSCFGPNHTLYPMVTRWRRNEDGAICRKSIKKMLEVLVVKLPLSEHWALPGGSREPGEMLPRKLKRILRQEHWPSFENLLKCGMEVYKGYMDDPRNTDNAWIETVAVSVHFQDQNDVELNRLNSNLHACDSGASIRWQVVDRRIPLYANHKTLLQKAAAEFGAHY
T3 sequence (O94759 whole entry K928A/D1069A): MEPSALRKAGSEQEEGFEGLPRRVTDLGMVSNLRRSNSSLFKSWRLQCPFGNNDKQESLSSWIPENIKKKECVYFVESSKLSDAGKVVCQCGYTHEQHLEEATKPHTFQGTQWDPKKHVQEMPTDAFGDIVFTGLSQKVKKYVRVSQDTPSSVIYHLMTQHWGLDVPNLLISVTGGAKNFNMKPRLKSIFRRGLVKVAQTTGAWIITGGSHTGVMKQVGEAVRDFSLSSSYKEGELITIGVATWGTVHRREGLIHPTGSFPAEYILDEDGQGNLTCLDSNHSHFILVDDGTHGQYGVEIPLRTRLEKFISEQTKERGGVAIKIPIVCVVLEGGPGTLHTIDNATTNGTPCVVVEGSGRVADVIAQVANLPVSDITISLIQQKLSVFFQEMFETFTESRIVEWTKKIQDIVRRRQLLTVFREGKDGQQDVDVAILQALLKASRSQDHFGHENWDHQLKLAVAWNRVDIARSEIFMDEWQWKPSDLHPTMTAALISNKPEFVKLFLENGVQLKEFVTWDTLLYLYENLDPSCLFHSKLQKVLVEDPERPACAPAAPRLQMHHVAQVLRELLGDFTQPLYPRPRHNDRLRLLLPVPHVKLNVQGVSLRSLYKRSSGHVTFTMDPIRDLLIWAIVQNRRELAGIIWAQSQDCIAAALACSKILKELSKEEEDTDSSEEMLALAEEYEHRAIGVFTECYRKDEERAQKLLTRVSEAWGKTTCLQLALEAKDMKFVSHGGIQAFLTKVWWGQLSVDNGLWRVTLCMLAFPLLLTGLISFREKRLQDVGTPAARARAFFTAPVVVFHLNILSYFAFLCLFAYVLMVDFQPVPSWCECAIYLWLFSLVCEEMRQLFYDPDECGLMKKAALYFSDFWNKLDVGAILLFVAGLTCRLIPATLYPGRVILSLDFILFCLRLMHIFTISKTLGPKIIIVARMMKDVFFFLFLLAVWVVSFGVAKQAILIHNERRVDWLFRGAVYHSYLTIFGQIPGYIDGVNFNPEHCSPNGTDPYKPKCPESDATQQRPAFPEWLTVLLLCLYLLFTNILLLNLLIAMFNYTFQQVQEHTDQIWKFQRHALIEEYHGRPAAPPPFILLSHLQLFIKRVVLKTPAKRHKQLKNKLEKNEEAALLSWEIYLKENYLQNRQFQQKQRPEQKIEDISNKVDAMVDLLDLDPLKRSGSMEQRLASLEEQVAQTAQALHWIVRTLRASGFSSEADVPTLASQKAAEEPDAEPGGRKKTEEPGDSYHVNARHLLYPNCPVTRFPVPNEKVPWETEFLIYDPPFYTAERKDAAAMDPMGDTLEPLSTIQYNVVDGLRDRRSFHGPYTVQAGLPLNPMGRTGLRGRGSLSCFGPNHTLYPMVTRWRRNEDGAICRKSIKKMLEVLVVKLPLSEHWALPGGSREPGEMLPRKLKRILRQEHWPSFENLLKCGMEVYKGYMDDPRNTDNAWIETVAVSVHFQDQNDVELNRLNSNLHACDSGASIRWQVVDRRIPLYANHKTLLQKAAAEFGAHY
T2 sequence (O94759 whole entry R302A/R358A): as the sequence (O94759 whole entry K928A/D1069A) above, with R302A, R358A, A928K, A1069D counted along it

Nc1ncnc2c1ncn2C1O[C@H](COP(=O)([O-])OP(=O)(O)OC[C@H]2OC(O)[C@H](O)[C@@H]2O)[C@@H](O)[C@H]1O.O.O.[Na+] (stereo partly drawn) [ADPR, Adenosine 5ʹ-diphosphoribose sodium salt]
activation of mutant TRPM2 currents [1]: eliminated the activation | activation of mutant TRPM2 currents [2]: failed to evoke currents | activation of mutant TRPM2 currents [3]: perfectly retained their agonist capacity
